Reference: US8080517B2, “Cell-permeable peptide inhibitors of the JNK signal transduction pathway” (Xigen SA, priority 2005, dated 2011)
Where a SMILES comes first, the peptide text is derived from it. [ ]: non-standard residue; d: D form.

Tests used:
βTC-3 cell cultures = type: cell-based
Method: The ability of the L- and D-enantiomeric forms of TAT and inventive TAT-IB1(s) peptides (“TAT-IB peptides”) to enter cells was evaluated. L-TAT, D-TAT, inventive L-TAT-IB1(s), and inventive D-TAT-IB1(s) peptides [SEQ ID NOs: 5, 6, 9 and 12, respectively] were labeled by N-terminal addition of a glycine residue conjugated to fluorescein. Labeled peptides (1 μM) were added to βTC-3 cell cultures, which were maintained as described in Example 3. At predetermined times cells were washed with PBS and fixed for five minutes in ice-cold methanol-acetone (1:1) before being examined under a fluorescence microscope. Fluorescein-labeled BSA (1 μM, 12 moles/mole BSA) was used as a control.
Little to no signal was present at 48 hours.
Fluorescent signals from these all-D retro-inverso peptides were still very strong 1 week later, and the signal was only slightly diminished at 2 weeks post treatment.

[1] = system: endogenous JNK activity in HepG2 cells; assay: Inhibition of endogenous IL-1β-induced JNK activity in HepG2 cells, AlphaScreen all-in one well approach; type: cell-based; conditions: FIG. 6 panel d
Method: HepG2 cells were seeded at 3,000 cells/well the day prior the experiment. Then, increasing concentrations of either interleukin-1β [IL-1β(▪)] or tumor necrosis factor α[TNFα(●)] (a) were added to activate JNK for 30 minutes. Cells were lysed in 20 mM Hepes, 0.5% Tween pH 7.4 and processed for AlphaScreen JNK. (b) Z′ for the JNK activity induced by 10 ng/ml IL-1β and measured in 384 wells/plate (n=96). (c) Inhibition of endogenous IL-1β-induced JNK activity with chemical JNK inhibitors [staurosporin (∘) and SP600125 (●)]. (d) Effect of peptidic inhibitors L-TAT-IB1(s) according to SEQ ID NO: 9 [here abbreviated as L-JNKi (▪)) and D-TAT-IB1(s) according to SEQ ID NO: 11 (here abbreviated as D-JNKi (□)) and JBDs (●) (corresponds to L-JNKI without the TAT sequence)] on […] dependent JNK activity. All panels are representative of three independent experiments (n=3).
Methods: Alphascreen Kinase Assay
Principle: AlphaScreen is a non-radioactive bead-based technology used to study biomolecular interactions in a microplate format. The acronym ALPHA stands for Amplified Luminescence Proximity Homogenous Assay. […]
Kinase reagents (B-GST-cJun, anti P-cJun antibody and active JNKS) were first diluted in kinase buffer (20 mM Tris-HCl pH 7.6, 10 mM MgCl2, 1 mM DTT, 100 μM Na3VO4, 0.01% Tween-20) and added to wells (15 μl). […] AlphaScreen signal was analyzed directly on the Fusion or En Vision apparatus.

[2] = Focal cerebral ischemia, permanent MCAO model, lesion volume; type: in vivo, 12-days-old rats
From the text: Focal cerebral ischemia was induced in 12-days-old rats. Pups were anesthetized in an induction chamber with 2% isoflurane and during the operation anaesthesia was maintained using a mask under 2% isoflurane. MCAO was induced by electrocoagulating a main branch of the middle cerebral artery (MCA). Rats were placed on the right side, and an oblique dermal incision was made between the ear and eye. After excision of the temporal muscle, the cranial bone was removed from the frontal suture to a level below the zygomatic arch. […] The cranial skin incision was then closed. Rat pups were then placed in an incubator maintained at 37° C. until they awoke, and were then transferred to their mother.
6 hours later an inventive chimeric D-TAT-IB1(s) peptide according to SEQ ID NO: 11 was injected intraperitoneally. 24 hours after the coagulation, the rats were anesthetized with chloral hydrate and perfused through the ascending aorta with 4% paraformaldehyde in PBS. Brains were then removed and kept for 2 hours in the same fixative solution, and placed in a gradient of 30% sucrose in PBS for about 15 hours at 4° C. Brains were frozen in isopentane (−40° C.) and stored at −20° C. Coronal cryostat sections of 50 µm were collected on glass slides. The sections were stained with cresyl violet. Each tenth section was analyzed and the total volume of the lesion was calculated using the Neuroleucida programme. In the control group A, the mean lesion volume was 21.47 mm^3. […] A significant statistic difference is observed between group A and groups C, E and F (one-tailed t-test, p=0.030, p=0.002, p=0.001 respectively).

[3] = Focal cerebral ischaemia, transient MCAO model, infarct volume; type: in vivo, male ICR-CD1 mice; conditions: i.v. administration, FIG. 4
From the text: Evaluation of neuroprotection by inventive chimeric peptides after iv administration against focal cerebral ischaemia, in a transient MCAO model (see FIG. 4).
Transient ischemia in adult mice. Using male ICR-CD1 mice (6 weeks old; 18-37 g; Harlan), we provoked ischemia by introducing a filament from the common carotid artery into the internal carotid and advancing it into the arterial circle, thereby occluding the middle cerebral artery. We measured regional cerebral blood flow by laser Doppler flowmetry, with a probe fixed on the skull throughout the ischemia until 10 min after reperfusion. Rectal temperature was measured and maintained at 37° C. The mice were killed 48 h after reperfusion. Serial cryostat sections 20 μm thick were traced using a computer-microscope system equipped with the Neurolucida program (MicroBrightField) and the volumes of the ischemic area and of the whole brain were calculated (blinded) with the Neuroexplorer program. XG−102 0.3=0.3 mg/kg,XG−102 1=1 mg/kg, XG−102 5=5 mg/kg
The infarct volume sizes (mm^3) after bolus iv administration of placebo and XG-102 0.3, […] 6 hours after reperfusion (30 minutes clamp) in an adult mice model were as follows.

stability inside the cells (βTC-3 cell cultures): extremely stable inside the cells
SMILES: CC(C)C[C@@H](NC(=O)[C@@H](Cc1ccccc1)NC(=O)[C@H]1CCCN1C(=O)[C@@H](CCC(N)=O)NC(=O)[C@H](NC(=O)[C@H]1CCCN1C(=O)[C@@H](CCCNC(=N)N)NC(=O)[C@@H](CO)NC(=O)[C@@H](CCC(N)=O)NC(=O)[C@H](N)CC(=O)O)C(C)C)C(=O)N[C@H](CC(N)=O)C(=O)N[C@H](CC(C)C)C(=O)N[C@@H](C(=O)N[C@@H](C(=O)N1CCC[C@@H]1C(=O)N[C@H](CCCNC(=N)N)C(=O)N[C@H](CCCCN)C(=O)N1CCC[C@@H]1C(=O)N[C@H](CCCNC(=N)N)C(=O)N1CCC[C@@H]1C(=O)N1CCC[C@@H]1C(=O)N[C@H](CCCNC(=N)N)C(=O)N[C@H](CCCNC(=N)N)C(=O)N[C@H](CCCNC(=N)N)C(=O)N[C@H](CCC(N)=O)C(=O)N[C@H](CCCNC(=N)N)C(=O)N[C@H](CCCNC(=N)N)C(=O)N[C@H](CCCCN)C(=O)N[C@H](CCCCN)C(=O)N[C@H](CCCNC(=N)N)C(=O)NCC(=O)O)[C@H](C)O)[C@H](C)O [D-TAT-IB1(s)] (H-[dD][dQ][dS][dR][dP][dV][dQ][dP][dF][dL][dN][dL][dT][dT][dP][dR][dK][dP][dR][dP][dP][dR][dR][dR][dQ][dR][dR][dK][dK][dR]G-OH)
inhibition of endogenous JNK activity [1]: effectively inhibits JNK activity, even better than L-TAT-IB1(s)
mean lesion volume of all treated groups versus control group ([2]; control group mean 21.47 mm^3): lower mean than the control group
cerebral protection (lesion volume) compared to saline group ([2]; doses 1 mg/kg, 0.003 mg/kg and 0.0003): not large enough to reach a significant difference
dose of best protection ([2]; i.p. 6 hours after MCAO): 0.03 mg/kg
cerebral protection (lesion volume) ([2]; i.p. 6 hours after MCAO, doses 11 mg/kg, 3 mg/kg, 0.3 mg/kg and 0.03 mg/kg, 24 hours after coagulation): contributes to a cerebral protection
neuroprotection (infarct volumes) [3]: provides efficient neuroprotection
